From US10300004B2, “Cosmetic composition for preventing or ameliorating skin damage caused by ultraviolet light” (CUSKIN CO., LTD, priority 2015, dated 2019)
Each block holds one molecule with its values, some of them ahead of it.

What was measured:
human epidermis = details: Placzek M et al. 2005; cited from earlier work
[1] = test system: Human dermal fibroblasts (HDFs); assay: MTT viability of dermal fibroblasts under UVB irradiation; type: cell-based
Method: (§1) Human dermal fibroblasts (HDFs) and immortalized keratinocyte cell line (HaCaT) were cultured using DMEM (low, high glucose, Hyclone, Thermo Scientific, Logan, Utah, USA) supplemented with 10% FBS (Gibco, Invitrogen, Carlsbad, Calif., USA), 1% penicillin, and streptomycin (Gibco) at 37° C. with 5% CO2 in a humidified atmosphere (Kim W S et al., (2009) Journal of dermatological science 53: 96-102). Said cultures were performed by exchanging with fresh media every two days.
(§2) HDFs (3×10^4 cells/well) and HaCaT (4×10^4 cells/well) were seeded in 6-well plates. Cells were treated with various concentrations of MVE. Cells were then incubated for 48 hours and the MTT assay was performed. MTT solution (5 mg/ml in phosphate buffered saline) was added to each well at 1/20 of the media volume, incubated for 2 hours, and then supernatant was removed. Dimethyl sulfoxide (DMSO) was then added to dissolve formazan crystals, and the absorbance was measured at 595 nm using an ELISA reader (TECAN, Grodig, Austria).

[2] = test system: Human dermal fibroblasts (HDFs); assay: MTT proliferation assay in dermal fibroblasts; type: cell-based; details: 100~1000 nM; p<0.01; FIG. 1B
Method: as §1, §2

collagen type I = assay: RT-PCR of collagen mRNA in dermal fibroblasts; type: cell-based, Human
Method: (§3) Total RNA of HDFs and HaCaT was extracted with Trizol reagent followed by reverse transcription to cDNA. The following oligonucleotides were used as primers: collagen type I [5′-[…]-3′ (SEQ ID NO: 1) and 5′-[…]-3′ (SEQ ID NO: 2)], MMP-1 [5′-[…]-3′ (SEQ ID NO: 3) and 5′-[…]-3′ (SEQ ID NO: 4)], and control GAPDH [5′-[…]-3′ (SEQ ID NO: 5) and 5′-[…]-3′ (SEQ ID NO: 6)]. PCR was carried out in a total volume of 30 μl for PCR amplification of cDNA that was reverse-transcribed from the total RNA. After initial denaturation at 95° C. for 5 minutes, amplification was performed in 35 cycles for 30 seconds at 95° C., 20 seconds at 54° C., and 30 seconds at 72° C. This was followed by a final extension at 72° C. for another 10 minutes. GAPDH mRNA level was used for sample standardization.

[3] = test system: matrix metalloproteinase 1 (MMP1); assay: RT-PCR of MMP1 mRNA in dermal fibroblasts; type: cell-based, Human
Method: as §3

collagen = assay: Western blot of collagen protein in fibroblasts; type: cell-based, Human; details: FIG. 2C
Method: (§4) Cells (2×10^5 cells/ml) were seeded in a 60 mm dish and cultured to 80% confluence. Cells were treated with MVE. Cells were then lysed with 1×RIPA buffer (50 mM Tris-HCl, 0.15 M NaCl, 1 mM EDTA, 1% Triton-X100, pH 7.4, 1% SDS, 50 mM NaF, 1 mM Na3VO4, 5 mM Dithiothreitol, 1 mg/ml Leupeptin, and 1 mM phenylmethylsulfonyl fluoride). Sample protein (40 μg) was separated in 10-12% SDS-polyacrylamide gels by electrophoresis. Proteins were transferred to PVDF membranes and incubated with antibodies to collagen (1:1000 rabbit source, Santa Cruz Biotechnology, Santa Cruz, Calif., USA) and matrix metalloproteinase 1 (MMP1, 1:1000 rabbit source, Santa Cruz Biotechnology). Membranes were then washed and incubated with horseradish peroxidase-conjugated anti-rabbit IgG antibody (Santa Cruz Biotechnology). Blots were reacted with western reagent (ECL; Millipore Billerica, Ann Arbor, Mass., USA) and exposed to X-ray film.

[4] = test system: matrix metalloproteinase 1 (MMP1); assay: Western blot of MMP1 protein in fibroblasts; type: cell-based, Human; details: FIG. 2C
Method: as §4

fibroblasts [5] = assay: Cellular ROS generation assay (DCF-DA) in fibroblasts; type: cell-based, Human; details: UVB, MVE 1000 nM, p<0.01, FIG. 3a
Method: (§5) Cellular ROS generation was measured using 2′,7′-dichlorodihydrofluorescein diacetate (DCF-DA, Molecular Probes, Eugene, Oreg., USA), as described previously (Hye Kim J et al., Stem cells 33: 542-556). Similarly, mitochondrial ROS (mtROS) generation was measured using Mito-Sox (Molecular Probes). Cells were seeded in 6-well plates in 0.2% FBS and cultured overnight. […] Each well was imaged every 10 minutes for 40 minutes under standard incubation conditions using an IncuCyte™ ZOOM microscope placed inside an incubator. Image-based analysis of fluorescence intensity was carried out using IncuCyte™ software (Essen Bioscience, MI, USA).

fibroblasts [6] = assay: Mitochondrial ROS generation assay (Mito-Sox) in fibroblasts; type: cell-based, Human; details: UVB, MVE 1000 nM, p<0.01, FIG. 3b
Method: as §5

HaCaT cells [7] = assay: MTT proliferation assay in HaCaT cells; type: cell-based, Human; details: dose-dependent; p<0.05; FIG. 4A
Method: as §1, §2

HaCaT cells [8] = assay: MTT viability of HaCaT cells under UVB; type: cell-based, Human; details: p<0.01, FIG. 4B
Method: as §1, §2

p53 = p53 protein levels in HaCaT cells after UVB; type: cell-based, Human; details: FIG. 4C
HaCaT cells [9] = assay: Cellular ROS generation assay (DCF-DA) in HaCaT cells; type: cell-based, Human; details: UVB, MVE 1000 nM, p<0.01, FIG. 5a
Method: as §5

HaCaT cells [10] = assay: Mitochondrial ROS generation assay (Mito-Sox) in HaCaT cells; type: cell-based, Human; details: UVB, MVE 1000 nM, p<0.01, FIG. 5b
Method: as §5

HaCaT keratinocytes = details: Shibata A et al. 2010; cited from earlier work
[11] = dermal fibroblasts, no UVB, FIG. 2A

Molecule: Cc1c(C)c2c(c(C)c1O)CC[C@@](C)(CCC[C@H](C)CCC[C@H](C)CCCC(C)C)O2 [D-alpha-tocopherol]
UVB-induced DNA damage (human epidermis): prevented

MMP1 mRNA expression [3, 11]: down-regulated
mRNA level of MMP1 increased by UVB ([3]; fibroblasts with UVB, FIG. 2B): reduced
Molecule: Cc1c(C)c2c(c(C)c1O)CCC(C)(CC[P+](c1ccccc1)(c1ccccc1)c1ccccc1)O2.[Br-] (centres unmarked) [MVE]
protection of fibroblasts from UVB ([1]; 10~1000 nM, p<0.01, FIG. 1C): protected
fibroblast survival (UVB irradiation), low concentrations ([1]; UVB 200 mJ, 0.1 and 1 μM, concentration-dependent, FIG. 1A): increased
fibroblast survival (UVB irradiation), high concentrations ([1]; UVB 200 mJ, 10 to 100 μM, concentration-dependent, FIG. 1A): decreased
fibroblast proliferation [2]: increased
collagen mRNA expression (collagen type I; [11]): increased
mRNA level of collagen reduced by UVB irradiation (collagen type I; fibroblasts with UVB, FIG. 2B): attenuated
protein level of collagen (collagen): altered
protein level of MMP1 [4]: altered
cytosolic ROS level: fluorescent signal intensity of DCF-DA (fibroblasts [5]): attenuated
mitochondria ROS production: signal intensity of mito-Sox (fibroblasts [6]): reduced
proliferation of HaCaT cells (HaCaT cells [7]): significantly increased
UVB-reduced cell viability (HaCaT cells [8]): increased
UVB-induced p53 protein levels (p53): reduced
cytosolic ROS level: fluorescent signal intensity of DCF-DA (HaCaT cells [9]): attenuated
mitochondrial ROS production: signal intensity of mito-Sox (HaCaT cells [10]): reduced

Molecule: CC(C)=CCC/C(C)=C/CC/C(C)=C/CC[C@]1(C)CCc2cc(O)c(C)c(C)c2O1 [γ-tocotrienol]
protection from UVB induced inflammation (HaCaT keratinocytes): protected

Molecule: vitamin E [reference compound]
survival of dermal fibroblasts from UVB irradiation ([1]; UVB 200 mJ, 0.1 to 100 μM, FIG. 1A): slightly increased
